{"source": "patent EP1157694A1", "about": "“REMEDIAL AGENT FOR ERECTILE DYSFUNCTION” (Nissan Chemical Industries, Ltd., priority 1998, dated 2000)", "key": {"[1]": {"tested_on": "isolated corpus cavernosum of rabbit", "assay": "Relaxation on norepinephrine-induced contraction in isolated corpus cavernosum of rabbit", "details": "for attenuation of action by pre-treatment with L-NAME: L-NAME (1 mmol/L); for IC50: Oryctolagus cuniculus", "excerpt": "(§1) Rabbits were sacrificed by venesection following severing of the carotid artery under sodium pentobarbital anesthesia. The penis was immediately isolated and transferred into Krebs-Henseleit solution (composition (mmol/L): NaCl 118.4, KCl 4.7, CaCl2 2.5, MgSO4 1.2, KH2PO4 1.2, NaHCO3 25.0, glucose 11.1), which was adequately aerated with a 95% O2/5% CO2. After cutting away the connective tissue, the penis was severed longitudinally into two sections so that half of the urethra was present in each section by using an extension of the midline as the boundary. Each preparation was suspended from an FD pickup (TB-611T, Nihon Koden) at a resting tension of 0.5 g (about 5 mN) for the load in a nutrient solution consisting of 20 ml of organ bath maintained at 37°C. Contraction was recorded as the isometric contraction on a thermal pen writing recorder (WT-685G, Nihon Koden) following amplification by a carrier amplifier (AP-621G, Nihon Koden). After replacing the nutrient solution twice every 20 minutes and allowing to equilibrate, reactivity was confirmed for each preparation by observing the contraction to 1 µmol/L of norepinephrine. After contraction stabilized, the preparation was washed by replacing the nutrient solution, after which the solution was additionally replaced twice every 20 minutes and acceptable to equilibrate.\nTo begin with, each preparation was contracted by norepinephrine (final concentration: 1 µmol/L). The preparation for which stable tension was obtained at this time was used in the experiment. Each drug was administered cumulatively in 10-fold ratios followed by observation of the reaction. The maximum relaxation reaction was determined by application of papaverine hydrochloride (final concentration: 100 µmol/L).\nThe inhibition rate at each concentration was calculated by taking the tension during addition of norepinephrine to represent an inhibition rate of 0%, and the tension during the maximum relaxation reaction induced by addition of papaverine hydrochloride to represent an inhibition rate of 100%, followed by calculation of the concentration value at which the inhibition rate was 50% (IC50)."}, "right atrium preparation": {"tested_on": "right atrium preparation", "assay": "Action on isolated cardiac muscle of guinea-pig: number of beats of right atrium preparation", "details": "for action on the heart relative to the action on the corpus cavernosum: EC30 heart compared with IC50 corpus cavernosum of Experimental example 2; for EC30 Heart rate: number of beats, 30% of isoproterenol maximum reaction", "description": "After sacrificing male Hartley guinea-pigs by venesection, the heart was isolated and transferred to Krebs-Henseleit solution was adequately aerated with a 95% O2/5% CO2. After promptly separating the heart into the atria and ventricles, a papillary muscle preparation from the right ventricle and a right atrium preparation were prepared. Each preparation was suspended from an FD pickup (TB-611T, Nihon Koden) at a resting tension of 0.5 g (about 5 mN) for the load in a nutrient solution consisting of organ bath maintained at 31°C. Automatic contraction of the right atrium amplified by a carrier amplifier (AP-600G, Nihon Koden) followed by recording tension and the number of beats on a recorded by means of an instantaneous heart rate counter (AT600G, Nihon Koden). For the papillary muscle, a rectangular wave electrical stimulus was applied by an electrical stimulator (SEN-3201, Nihon Koden) through bipolar platinum electrodes followed by amplification of the resulting tension by a carrier amplifier (AP-600G, Nihon Koden) and recording on a recorder. The right atrium preparations were equilibrated by replacing the nutrient solution twice every 20 minutes followed by confirmation of the reactivity of each preparation by observing the number of beats in the presence of 0.1 µmol/L of isoproterenol. After the number of beats had stabilized, the preparations were washed by replacing the nutrient solution and additionally equilibrated by replacing the nutrient solution twice every 20 minutes. Each drug was administered cumulatively followed by observing the reaction. Drug action was evaluated by determining the rate of change caused by the drug by taking the difference between the maximum reaction induced by isoproterenol and that before drug administration to be 100%, and then calculating the EC30 value as the concentration at which drug action was 30% with respect to the number of beats based on this rate of change."}, "[2]": {"assay": "Activity on intracavernous pressure by intracavernous injection to anesthetized dogs", "type": "in vivo", "description": "Male beagle dogs having body weights of about 10 kg were anesthetized by intravenous administration of sodium pentobarbital at 35 mg/kg followed by immobilizing the animals in the dorsal position on a heating mat (SMS-2000J, Medical System Inc.) and inserting a. cannula into the trachea. A 23G winged needle for measuring internal pressure was inserted into the right corpus cavernosum, and intracavernous pressure was measured with a blood pressure measurement amplifier (AP-641G, Nihon Koden) by means of a pressure transducer (Statham P-50, Gould Co.). Moreover, a 23G winged needle for administration of drug was inserted into the right corpus cavernosum of the base followed by intracavernous injection of sodium nitroprusside (SNP, 10^-4 or 10^-3 mol/L, 0.5 ml) followed by administration of drug at the stage an increase in intracavernous pressure was confirmed. It should be noted that Compound A and milrinone were prepared with dimethyl sulfoxide-ethanol-physiological saline (1:2:30). […]\nThe activity of Compound A was assessed directly by administering at a volume of 0.5 ml starting from the lowest dose level at 0.243, 0.729, 2.43, 7.29, 24.3 and 72.9 µg/body (10^-6, 3 × 10^-6, 10^-5, 3 × 10^-5, 10^-4 and 3 × 10^-4 mol/L).\nThe effect of milrinone and zaprinast was assessed by concomitant administration of milrinone at 106 µg/body (10^-3 mol/L) and zaprinast at 136 µg/body (10^-3 mol/L) using a dosing volume of 0.5 ml each.\nIntracavernous pressure was input into a polygraph (RM-6000, Nihon Koden), and together with continuously recording on a thermal pen recorder, was recorded and sampled on an external storage device (hard disk) of a computer (Macintosh Performa 5260, Apple) by means of a circulation kinetics analysis system (MP100WS, BIOPAC System) using circulation kinetics analysis software (MP/VAS 3 Ver. 1.0 beta 4.2, Physio-Tech Co., Ltd.). Maximum rate of change, duration and area under the curve (AUC) of intracavernous pressure were calculated using the circulation kinetics analysis software based on the resulting data. […]"}, "[3]": {"tested_on": "isolated thoracic aorta of rabbit", "assay": "Relaxation on norepinephrine-induced contraction in isolated thoracic aorta of rabbit", "details": "for IC50: Oryctolagus cuniculus", "excerpt": "as §1, with “equilibrate. To begin with, each preparation was contracted by norepinephrine (final concentration: 1 µmol/L). The preparation for which stable tension was obtained at this time was used in the experiment. Each drug was administered cumulatively in 10-fold ratios followed by observation of the reaction. The maximum relaxation reaction was determined by application of papaverine hydrochloride (final concentration: 100 µmol/L). The inhibition rate at each concentration was calculated by taking the tension during addition of norepinephrine to represent an inhibition rate of 0%, and the tension during the maximum relaxation reaction induced by addition of papaverine hydrochloride to represent an inhibition rate of 100%, followed by calculation of the concentration value at which the inhibition rate was 50% (IC50). The procedure was performed in the same manner as Experimental Example 2 with the exception of isolating the thoracic aorta and preparing in the form of a […] strip, and using 1 g (about 10 mN) of resting tension for the load.” for “equilibrate.”"}, "[4]": {"tested_on": "papillary muscle preparation from the right ventricle", "assay": "Action on isolated cardiac muscle of guinea-pig: force of contraction of papillary muscle preparation", "details": "30% of isoproterenol maximum reaction", "description": "After sacrificing male Hartley guinea-pigs by venesection, the heart was isolated and transferred to Krebs-Henseleit solution was adequately aerated with a 95% O2/5% CO2. After promptly separating the heart into the atria and ventricles, a papillary muscle preparation from the right ventricle and a right atrium preparation were prepared. Each preparation was suspended from an FD pickup (TB-611T, Nihon Koden) at a resting tension of 0.5 g (about 5 mN) for the load in a nutrient solution consisting of organ bath maintained at 31°C. Automatic contraction of the right atrium amplified by a carrier amplifier (AP-600G, Nihon Koden) followed by recording tension and the number of beats on a recorded by means of an instantaneous heart rate counter (AT600G, Nihon Koden). […] Drug action was evaluated by determining the rate of change caused by the drug by taking the difference between the maximum reaction induced by the second administration of isoproterenol and that before drug administration to be 100%, and then calculating the EC30 value as the concentration at which drug action was 30% with respect to force of contraction based on this rate of change."}, "[5]": {"details": "direct relaxation, norepinephrine 1 µmol/L contraction"}, "[6]": {"details": "pre-treatment with L-NAME (1 mmol/L)"}, "[7]": {"details": "intracavernous injection, Dunnett's test vs solvent group"}}, "note": "Counter-ions that a name gives are not always drawn.", "data": [{"molecule": "CCCOc1ccccc1-c1nc2nn[nH]c2c(=O)[nH]1", "note": "[Zaprinast, zaprinast, reference compound]", "values": [{"measurement": "attenuation of action by pre-treatment with L-NAME", "setting": "[1]", "result": "1/18"}, {"measurement": "IC50", "setting": "[1]; [5]", "result": 5500, "unit": "nM"}, {"measurement": "IC50", "setting": "[1]; [6]", "result": "> 100000", "unit": "nM"}]}, {"molecule": "Cl.O=c1[nH]nc(OCCCc2ccc(Cl)cc2)c(NCc2cccnc2)c1Br", "note": "[Compound A, 4-bromo-6-[3-(4-chlorophenyl)propoxy]-5-(3-pyridylmethylamino)-3(2H)-pyridazinone hydrochloride]", "values": [{"measurement": "action on the heart relative to the action on the corpus cavernosum", "setting": "right atrium preparation", "result": "less than 1/90"}, {"measurement": "EC30 Heart rate", "setting": "right atrium preparation; hydrochloride", "result": ">30000", "unit": "nM"}, {"measurement": "intracavernous pressure", "setting": "[2]; intracavernous injection 0.243 to 72.9 µg/body (10^-6 to 3 × 10^-4 mol/L), after SNP", "result": "increased intracavernous pressure, nearly dose-dependently"}, {"measurement": "dose with significant effects on duration of intracavernous pressure", "setting": "[2]; [7]", "result": "≥ 2.43", "unit": "µg/body"}, {"measurement": "dose with significant effects on maximum rate of change of intracavernous pressure", "setting": "[2]; [7]", "result": "≥ 2.43", "unit": "µg/body"}, {"measurement": "attenuation of action by pre-treatment with L-NAME", "setting": "[1]", "result": "about one-half"}, {"measurement": "IC50", "setting": "[1]; [5]", "result": 330, "unit": "nM"}, {"measurement": "IC50", "setting": "[1]; [6]", "result": 770, "unit": "nM"}, {"measurement": "IC50", "setting": "[1]; pre-treatment with SNP (1 nmol/L)", "result": 150, "unit": "nM"}, {"measurement": "enhancement of action by pre-treatment with SNP", "setting": "[1]; SNP (1 nmol/L)", "result": "about two-fold"}, {"measurement": "action on the cavernous body relative to that on the aorta", "setting": "[3]; IC50 aorta compared with IC50 corpus cavernosum", "result": "about 8 times"}, {"measurement": "IC50", "setting": "[3]; aorta, pre-treatment with SNP (1 nmol/L)", "result": 2710, "unit": "nM"}, {"measurement": "IC50", "setting": "[3]; direct relaxation, norepinephrine 1 µmol/L contraction, aorta", "result": 2650, "unit": "nM"}, {"measurement": "relaxation action", "setting": "[3]; aorta, cumulative administration", "result": "dose-dependent relaxation action"}, {"measurement": "effect of pre-treatment with SNP on action", "setting": "[3]; aorta, SNP (1 nmol/L)", "result": "completely unaffected"}, {"measurement": "EC30 Papillary muscle contraction force", "setting": "[4]; hydrochloride", "result": ">30000", "unit": "nM"}]}, {"molecule": "O=c1[nH]nc(OCCC(O)c2ccc(Cl)cc2)c(NCc2cccnc2)c1Br", "note": "(stereo not drawn) [Compound B, 4-bromo-6-[3-(4-chlorophenyl)-3-hydroxypropoxy]-5-(3-pyridylmethylamino)-3(2H)-pyridazinone hydrochloride]", "values": [{"measurement": "IC50", "setting": "[1]; [5]", "result": 1590, "unit": "nM"}]}, {"molecule": "Cc1[nH]c(=O)c(C#N)cc1-c1ccncc1", "note": "[Milrinone, milrinone, reference compound]", "values": [{"measurement": "action on the heart relative to the action on the corpus cavernosum", "setting": "right atrium preparation", "result": "about 1/2"}, {"measurement": "EC30 Heart rate", "setting": "right atrium preparation", "result": 11700, "unit": "nM"}, {"measurement": "IC50", "setting": "[1]; [5]", "result": 5800, "unit": "nM"}, {"measurement": "EC30 Papillary muscle contraction force", "setting": "[4]", "result": 33900, "unit": "nM"}]}]}
